Measured values reported in paper PMC12698583, “Efficacy of sulfonamides targeting malic enzyme in an animal model of Chagas disease” (Frontiers in Pharmacology, 2025).

Tests used:
Kinetic solubility = assay type: physicochemical; conditions: 25 °C
Experimental: These conditions simulate stomach acidity, plasma neutrality, and intestinal basicity.
For the chemical stability experiment, the compounds were evaluated under the same conditions with an additional incubation at 37 °C for a period of 24 h. The analysis was performed using an analytical method developed and validated by high-performance liquid chromatography with UV detection (HPLC-UV). Compounds were quantified in different pH media by comparing the areas where the substances were completely soluble with those in the reaction media. The experiments were performed in a triplicate.
These conditions simulate stomach acidity, plasma neutrality, and intestinal basicity. […] For the chemical stability experiment, the compounds were evaluated under the same conditions with an additional incubation at 37°C for a period of 24 hours. The analysis was performed using an analytical method developed and validated by high-performance liquid chromatography with UV detection (HPLC-UV). Compounds were quantified in the different pH media by comparing the areas where the substances were completely soluble with those in the reaction media. The experiments were performed in triplicate.

[1] = Metabolic stability in mouse liver microsomes; assay type: in vitro ADME; conditions: for half-life at 1 μM: CD-1, pH 7.4, mouse liver microsomes, 0.25 mg/mL, read-out: T1/2 - mouse; for parent compound remaining: mouse microsomes
Experimental: The in vitro metabolic stability of the compound was evaluated in pooled human liver microsomes (HLM, 20 mg/mL), Sprague-Dawley rat liver microsomes (RLM, 20 mg/mL), and CD-1 mouse liver microsomes (MLM, 20 mg/mL), all purchased from GIBCO (Thermo Fisher Scientific). NADPH regenerating system (GentestTM) was prepared in potassium phosphate buffer (100 mM, pH 7.4). […] The reaction was stopped by adding acetonitrile, followed by vortex homogenization, sonication for 5 min, and centrifugation at 10,000 g for 5 min at 4 °C. The supernatants were transferred to glass vials for LC-MS/MS analysis. The half-life was estimated based on the area under the curve (AUC) through regression analysis of the concentration decay over time. This calculation was performed using the following formula: t1/2=LN2/Kel
Where LN is the neperian logarithm, and K is the slope of the regression of the LN of AUC as a function of time. Then, the microsomal intrinsic clearance (CLint, mic) was calculated using the following equation: CLint.mic=LN2/t1/2 x VI/PM
Where V is the incubation volume (µL), and PM is the microsomal protein concentration (mg). This intrinsic clearance can be extrapolated to the whole liver (CLint,hep) using the following equation: CLint.hep=CLint.mic x ML x LB
ML is the microsomal yield, and LB is the liver weight (g) per kilogram of body weight.
To ensure the linearity of the elimination phase and to avoid the influence of points outside the log-linear range, the points deviated from the expected first-order kinetic profile were excluded. The supernatants were analyzed by UPLC-Xevo-TQ-XS from Waters. Chromatographic separation was performed on an Acquity UPLC BEH C18 column (2.1 × 100 mm, 1.7 µm particle size), maintained at 40 °C. The mobile phases were (A) water with 0.1% formic acid and (B) acetonitrile with 0.1% formic acid. […] The total run time was 5 min.

Caco-2 cells = test: Caco-2 permeability assay; assay type: in vitro ADME
Experimental: (§1) Caco-2 cells (2.5 × 10^5) were cultured on 12 mm diameter filters with DMEM-PEST medium in an incubator at 37 °C and 10% CO2. Monolayer formation was monitored through transepithelial electrical resistance (TEER). […] The assay was conducted under orbital shaking at 37 °C. […] Compound quantification was performed using the HPLC-UV method, following the previously adjusted chromatographic conditions and parameters. At the end of the experiment, monolayer integrity was confirmed by measuring TEER.

[2] = Caco-2 permeability assay; assay type: in vitro ADME; conditions: human, Caco-2; apical to basolateral, 0.1 mM, 120 min
Experimental: as §1

[3] = system: T. cruzi Dm28c strain intracellular form infecting H9c2 rat cardiomyoblasts; test: T. cruzi intracellular image-based assay; assay type: cell-based, Trypanosoma cruzi; conditions: for SI: Selectivity index; for EC50: host cells infected by T. cruzi amastigotes, 72 h treatment
Experimental: Tested compounds were dissolved and serially diluted in dimethylsulfoxide (DMSO) using a half-log dilution across six concentrations. Intermediate plates were prepared by diluting compounds 1:25 in DMEM (Dulbecco’s Modified Eagle Medium) with 10% FBS (Fetal Bovine Serum). The assay was based on [Fredo Naciuk et al. (2020)], with minor modifications. Briefly, T. cruzi trypomastigotes (from LLC-MK2 cultures, 6 days post-infection) were used to infect H9c2 rat cardiomyoblasts overnight (16–18 h) at MOI 1. After washing with PBS, cells were trypsinized and resuspended in DMEM at 2.3 × 10^4 cells/mL. Then, 65 μL per well was plated in 384-well plates and incubated for 24 h (37 °C, 5% CO2, >95% humidity). Subsequently, 7.5 μL of compound solution was added (final [DMSO] 0.4%). After 72 h of treatment, cells were fixed with 4% PFA and stained with Hoechst 33342 (4 μg/mL). Six images per well were acquired using the Operetta system (PerkinElmer) and analyzed with Columbus software to quantify infected cells (≥3 cytoplasmic parasite spots).

in vitro = in vitro ADME; conditions: for Papp at 5 h, 100 μM: PAMPA
Experimental: The parallel artificial membrane permeability assay (PAMPA) was performed using a 96-well pre-coated plate system (Corning® BioCoat™ PAMPA Plate System). […] A total of 200 µL of each solution was added to donor wells, while 300 µL of PBS was placed in the corresponding acceptor wells. The plates were assembled and incubated at 37 °C for 5 h. Aliquots of the initial donor solution (T0) were collected before incubation and stored at −20 °C. At the end of the incubation, samples from donor and acceptor compartments were transferred to tubes containing 30% (v/v) acetonitrile and processed under identical conditions. Compound concentrations in donor, acceptor, and T0 samples were quantified by high-performance liquid chromatography with ultraviolet detection (HPLC-UV) using validated chromatographic conditions. The apparent permeability coefficient (Papp) was calculated using the standard PAMPA equation, shown below. All experiments were performed in a trplicate.
The Papp equation is: Papp=−VD+VA/At VD+VAln 1−CA t/Ceq

[4] = across pH conditions (1.7, 7.4, 8.9)
[5] = pH 5.5, PAMPA pH 5,5 Papp - lower
[6] = pH 5.5, PAMPA pH 5,5 Papp - upper
[7] = pH 7.4, PAMPA pH 7,4 Papp - lower
[8] = pH 7.4, PAMPA pH 7,4 Papp - upper

Row | SMILES | Kinetic solubility (Kinetic solubility; acidic pH (1.7), 5 µM) [%] | Kinetic solubility (Kinetic solubility; [4]) | Kinetic solubility (Kinetic solubility; basic pH (8.9), 5 µM) [%] | Kinetic solubility (Kinetic solubility; neutral pH (7.4), 5 µM) [%] | microsomal CLint at 1 μM ([1]; CD-1, mouse, liver microsomes, pH 7.4, mouse liver microsomes, read-out: CL int. mic.) [µL/min/mg] | half-life at 1 μM [1] [min] | parent compound remaining ([1]; 15 min) | CL int. hep. ([1]; mouse, extrapolated to the whole liver) [mL/min/kg] | Caco-2 permeability classification (in words) (Caco-2 cells) | Papp at 120 min, 0.1 mM [2] [×10⁻⁶ cm/s] | SI [3] | Papp at 5 h, 100 μM (in vitro; [5]) [×10⁻⁶ cm/s] | Papp at 5 h, 100 μM (in vitro; [6]) [×10⁻⁶ cm/s] | Papp at 5 h, 100 μM (in vitro; [7]) [×10⁻⁶ cm/s] | Papp at 5 h, 100 μM (in vitro; [8]) [×10⁻⁶ cm/s] | PAMPA Papp at pH 5.5 (in vitro; pH 5.5) | parent compound remaining ([1]; 5 min) [%] | EC50 ([3]; Trypanosoma cruzi, H9c2, 72 h) [nM] | EC50 [3] [nM] | Papp at 5 h, 100 μM (in vitro; pH 7.4, PAMPA Papp at pH 7.4) [×10⁻⁶ cm/s]
1 | CC(C)Oc1ccc(NS(=O)(=O)c2cccc(NC(=O)c3cnccn3)c2)cc1 [AC-M110, N-(3-(N-(4-isopropoxyphenyl)sulfamoyl)phenyl)pyrazine-2-carboxamide] | 65 | above 60% | 74 | 65 | 339 | 2 | less than 1% | 1370 | approaching high permeability classification | 20.7 | 9092 | 3.4 | 4.4 | 9.1 | 9.6 | 3.4–4.5 × 10^−6 |  |  |  | 
2 | COc1ccc(NS(=O)(=O)c2cccc(NC(=O)c3cnccn3)c2)cc1 [AC-R008, N-(3-(N-(4-methoxyphenyl)sulfamoyl)phenyl)pyrazine-2-carboxamide] | 75 | above 60% | 75 | 75 |  | 3 | less than 1% |  | near the lower limit for moderate permeability | 9.71 | 108 | 40.5 | 56 | 92 | 86 |  | 5 | 920 | < 1000 | 92
